Experimental data taken from publication PMC8456496 (2021).
Blank lines part the entries; values can stand above or below the compound they belong to.

Experiments:
Test in all cases: fluorescence light-switch
[1] = tested on: poly AT (DNA, duplex) ATATATATATATATATATAT; conditions: 50 mM NaCl, 10 μM complex, 50 μM bp DNA
[2] = tested on: poly A poly T (DNA, duplex) AAAAAAAAAAAAAAAAAAAAA/TTTTTTTTTTTTTTTTTTTTT; conditions: 50 mM NaCl; 5 mM Tris-HCl pH 7.0, 1% DMSO, RT; 10 μM complex, 50 μM bp DNA; emission near 600 nm
[3] = tested on: poly T (DNA, single strand) TTTTTTTTTTTTTTTTTTTTT; conditions: 50 mM NaCl; 5 mM Tris-HCl pH 7.0, 1% DMSO, RT; 10 μM complex, 50 μM DNA; emission near 600 nm

- binding ([1]; 5 mM Tris-HCl pH 7.0, 1% DMSO, RT, excimer emission at 599 nm): yes
- binding [2]: yes
- binding [3]: yes
Compound: CN(C)Cc1[c-]cccc1.[Pt+2].c1ccc2cc3nc4c5cccnc5c5ncccc5c4nc3cc2c1

- binding ([1]; 5 mM Tris-HCl pH 7.0, RT, emission at 438 nm): yes
Compound: CN(C)Cc1[c-]cccc1.[Pt+2].c1cnc2c(c1)c1nccnc1c1cccnc12

- binding ([1]; 5 mM Tris-HCl pH 7.0, RT, emission at 431 nm): yes
Compound: CN(C)Cc1[c-]cccc1.[Pt+2].c1ccc2nc3c4cccnc4c4ncccc4c3nc2c1
